The record followed here is PMC6535779, “A Specific, Glycomimetic Langerin Ligand for Human Langerhans Cell Targeting” (ACS Central Science, 2019).

The test has as its target T1, DC-SIGN CRD (Homo sapiens, UniProt Q9NNX6).
T1 construct: with the DC-SIGN CRD were performed at a receptor concentration of 50 μM; made in house
T1 sequence (Q9NNX6 263-378 limits assumed): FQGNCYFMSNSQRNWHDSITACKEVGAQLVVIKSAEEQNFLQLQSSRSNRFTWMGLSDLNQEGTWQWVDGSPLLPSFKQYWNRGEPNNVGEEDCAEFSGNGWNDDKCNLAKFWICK
Put plainly: 19F R2-filtered NMR reporter displacement assay with DC-SIGN. It counts as binding. The following applies: for Ki: 19F R2-filtered NMR, DC-SIGN CRD, pH 7.0, 25 °C; for specificity: Table 1, Langerin against DC-SIGN. From the text:
Figure S7. 19F R2-filtered NMR assay development with DC-SIGN. […]
substantial line broadeni ng. This phenomenon was utilized to develop the 19F R2-filtered NMR reporter displacement assay following the procedure previously published for Langerin 3. The spectrum in absence of DC -SIGN is processed with an exponential apodization function at 1.8 Hz. b. The interaction between 24 and DC-SIGN was quantified via the transversal relaxation rate R2,obs using the CPMG pulse sequence4-5. Representative decay curves in the presence of DC-SIGN are shown. c. The Ca2+-dependency of the interaction was validated via addition of EDTA. The R2,obs value in absence of DC-SIGN was determined from four independent experiments. The standard error for the experiments in presence of DC-SIGN and EDTA is derived directly from the fitting procedure. d. Relaxation dispersion experiments for 24 in presence of DC-SIGN indicate at negligible exchange contribution R2,ex at a νCPMG value of 500 Hz. In contrast to Langerin, a considerable exchange contribution is observed a lower νCPMG values. e. A representative binding isotherm for the affinity determination for 24 is shown. The KD value was determined from three independent titrations. The obtained K D and additional parameters from the fitting procedure are given in Tab le S3.
(1 picture or pasted object on this page, not shown here)
Receptor Expression and Purification
General remarks. Codon-optimized genes for the expression of Langerin and DC-SIGN in E. coli were purchased from GenScript and Life Technologies, respectively. All growth media or chemicals used for receptor expression and purification were purchased from Carl Roth if not stated otherwise. […]
Langerin and DC-SIGN carbohydrate recognition domain. Expression and purification were conducted as previously published14. Briefly, the monomeric 15N-labeled Langerin and DC-SIGN carbohydrate recognition domains (CRDs) were expressed insolubly in E. coli BL21* (DE3) (Invitrogen). Following enzymatic cell lysis, inclusion bodies were harvested and subsequently solubilized. The sample was centrifuged and the Langerin and DC-SIGN CRDs were refolded overnight via rapid dilution. Next, the sample was dialyzed overnight, centrifuged and purified via StrepTactin affinity chromatography (Iba). After an additional dialysis step overnight, the sample was centrifuged and the buffer was exchanged to 25 mM HEPES with 150 mM NaCl at pH 7.0 using 7 kDa size-exclusion desalting columns (Thermo Scientific) for 19F R2-filtered and 15N HSQC NMR experiments. The concentration of Langerin and DC -SIGN CRDs was determined via UV spectroscopy (A280, 0.1% = 3.19 and A280, 0.1% = 2.98). Purity and monodispersity of Langerin and DC - SIGN CRD samples were analyzed via SDS PAGE and DLS.
General remarks. 19F R2-filtered NMR experiments were conducted on a PremiumCompact 600 MHz spectrometer (Agilent). Spectra were processed in MestReNova and data analysis was performed with OriginPro 13, 15. Experiments with the Langerin ECD were performed at a receptor concentration of 50 μM in 25 mM Tris with 10% D2O, 150 mM NaCl and 5 mM CaCl2 at pH 7.8 and 25° C. Experiments […]
with the DC-SIGN CRD were performed at a receptor concentration of 50 μM in 25 mM HEPES with 10% D2O, 150 mM NaCl and 5 mM CaCl2 at pH 7.0 and 25°C. TFA served as an internal reference at a concentration of 50 μM. Apparent relaxation rates R2,obs for the reporter ligand were determined using the CPMG pulse sequence as previously published3-5.
Assay development for DC-SIGN. The 19F R2-filtered NMR reporter displacement assay for DC-SIGN was developed following the procedure previously published for Langerin3. Briefly, the KD value and the relaxation rate in bound state R2,b were determined at five concentrations [L]T of reporter ligand 24 in three independent titration experiments. Samples were prepared via serial dilution. The addition of 10 mM EDTA served to validate the Ca2+-dependency of the interaction between DC-SIGN and the reporter ligand. […]

With `CC(=O)NCCO[C@@H]1O[C@H](CO)[C@@H](O)[C@H](O)[C@H]1NS(=O)(=O)c1ccc(C)cc1` [compound 16], the Ki (in general, the equilibrium dissociation constant of an inhibitor or competing ligand from its target) was found to be 15 ± 3 mM. Where the note is “from KI values”, the specificity worked out at 63 and the “specificity for Langerin against DC-SIGN” value came to 63 fold.
Compound `Cc1ccc(S(=O)(=O)N[C@H]2C(O)O[C@H](CO)[C@@H](O)[C@@H]2O)cc1` (some centres unmarked) [compound 2] came in with a Ki of 17 ± 1 mM. The same compound showed a specificity (from KI values) of 53.
With `CC(=O)NCCO[C@H]1O[C@H](CO)[C@@H](O)[C@H](O)[C@@H]1O` [compound 21], affinity was put at a Ki of 2.7 ± 0.3 mM. Further, where the note is “from KI values”, the specificity was 0.27 and the “specificity for DC-SIGN over Langerin” value is recorded as 3.7 fold.
